Laboratory results as given in patent US20230365546A1, “5-SUBSTITUTED INDOLE 3-AMIDE DERIVATIVES, PREPARATION METHOD AND USE THEREOF” (ORIGIANT PHARMACEUTICAL CO., LTD, priority 2020, published 2023).

What was measured:
[1] = test system: RIPK1 autophosphorylation, phosphorylation of RIPK3 and MLKL; experiment: Regulation of RIPK1 signaling pathway (Western blot); assay type: cell-based; conditions: TNF α/Smac mimetic/Z-VAD-FMK induced, FIG. 4
Excerpt: TNF α was purchased from PeproTech Inc., Smac mimetic and Z-VAD-FMK was purchased from Selleck Inc., RIPA lysis buffer was purchased from Beyotime Institute of Biotechnology, cocktail was purchased from MedChemExpress (MCE) Limited, PMSF protease inhibitors, sodium dodecylsulfonate SDS, and glycine were purchased from Sigma Inc., acrylamide, tris(hydroxymethyl)aminomethane Tris, ammonium persulfate APS and N,N,N′,N′-tetramethyl ethylenediamine TEMED were purchased from Wuhan Servicebio Technology Co., Ltd.
Extraction of total cellular protein: after the cells were treated by adding the corresponding concentration of Compounds 94 and 46 or blank vehicle to the cell supernatant and induced with TNF α/Smac mimetic/Z-VAD-FMK combination for a certain period of time, the supernatant was discarded, followed by washing three times with pre-cooled PBS or normal saline, then an appropriate volume of RIPA lysis buffer (containing 1% cocktail and 1% PMSF protease inhibitor) was added, the mixture was immediately placed on ice horizontally for lysis of 15 min, then the cell lysis buffer was scraped with a scraper and transferred to a 1.5 ml EP tube, and the cells were disrupted with a sonicator. The tubes were then centrifuged in a low temperature high speed centrifuge (12000 rpm, 15 min) to remove cell debris. […]

TNF α-induced SIRS = experiment: TNF α-induced mouse SIRS model; assay type: in vivo
Method: TNF α formulated in sterile normal saline was administered at a dose of 500 μg/kg by tail vein injection for modeling. The body temperature of the mice was measured by an infrared electric thermometer. The orally-administrated vehicle was 25% castor oil in ethanol and 75% normal saline. Compounds 94 and 46 and RIPK1 positive compound GSK2982772 were administered orally before modeling with a dose of 40 mg/kg. Body temperature and the survival of mice were recorded every hour and recorded for 24 h and 48 h after 11 h.
This experiment established a TNF α-induced SIRS mouse model to evaluate the in vivo activity of compounds of the present invention. TNF α formulated in sterile normal saline was administered to mice at a dose of 500 μg/kg by tail vein injection for modeling. Since the measurement of rectal temperature would cause mechanical injury to mice and may interfere with the experimental results, an infrared electric thermometer was used to measure the body temperature of mice and the survival condition was observed. Compounds 94 and 46 were administered at a dose of 40 mg/kg once prior to modeling. The Vehicle group was given the corresponding vehicle control.

hERG potassium channel = hERG potassium channel (Homo sapiens (Human), UniProt Q12809); experiment: cell-based
Method: Stable HEK-hERG cells were washed with DPBS, digested with Trypsin or Tryple solution, resuspended in culture medium, and stored in centrifuge tubes for use.
hERG currents were recorded with a whole-cell patch clamp technique. The cell suspension was placed in a small petri dish and placed on an objective table of an inverted microscope. After attachment, the cells were perfused with extracellular fluid at a recommended flow rate of 1-2 mL/min. The glass microelectrode was pulled in two steps by a microelectrode puller, and the resistance in electrode fill solution was 2-5 MΩ.
After establishing the whole-cell recording mode, the clamping potential was kept at −80 mV. […] This set of pulses was repeated every 15 seconds throughout the experiment.
After the current was stable, continuous extracellular perfusion administration was conducted from low concentration to high concentration. The perfusion was continued from a low concentration until the pharmaceutical effect was stable, and then the perfusion of the next concentration was conducted.
if it was unstable, this concentration data would not be taken.
IC50 values were obtained by fitting the Hill equation (if applicable): […]

DSS-induced colitis = experiment: DSS-induced mouse IBD model
Method: Female C57BL/6 mice weighing 17-20 g were used. […] Fresh DSS solution was changed on Days 2, 4, and 6, respectively. […] The Control group was given normal drinking water daily and corresponding vehicles orally starting on day 7. Body weights and survival rates of mice were recorded daily. Survival curves were fitted using Graphpad Prism 5.0 software. Mice (2/group) were sacrificed on day 12 and observed for changes in colon length.

Sequence of hERG potassium channel (Q12809 whole entry): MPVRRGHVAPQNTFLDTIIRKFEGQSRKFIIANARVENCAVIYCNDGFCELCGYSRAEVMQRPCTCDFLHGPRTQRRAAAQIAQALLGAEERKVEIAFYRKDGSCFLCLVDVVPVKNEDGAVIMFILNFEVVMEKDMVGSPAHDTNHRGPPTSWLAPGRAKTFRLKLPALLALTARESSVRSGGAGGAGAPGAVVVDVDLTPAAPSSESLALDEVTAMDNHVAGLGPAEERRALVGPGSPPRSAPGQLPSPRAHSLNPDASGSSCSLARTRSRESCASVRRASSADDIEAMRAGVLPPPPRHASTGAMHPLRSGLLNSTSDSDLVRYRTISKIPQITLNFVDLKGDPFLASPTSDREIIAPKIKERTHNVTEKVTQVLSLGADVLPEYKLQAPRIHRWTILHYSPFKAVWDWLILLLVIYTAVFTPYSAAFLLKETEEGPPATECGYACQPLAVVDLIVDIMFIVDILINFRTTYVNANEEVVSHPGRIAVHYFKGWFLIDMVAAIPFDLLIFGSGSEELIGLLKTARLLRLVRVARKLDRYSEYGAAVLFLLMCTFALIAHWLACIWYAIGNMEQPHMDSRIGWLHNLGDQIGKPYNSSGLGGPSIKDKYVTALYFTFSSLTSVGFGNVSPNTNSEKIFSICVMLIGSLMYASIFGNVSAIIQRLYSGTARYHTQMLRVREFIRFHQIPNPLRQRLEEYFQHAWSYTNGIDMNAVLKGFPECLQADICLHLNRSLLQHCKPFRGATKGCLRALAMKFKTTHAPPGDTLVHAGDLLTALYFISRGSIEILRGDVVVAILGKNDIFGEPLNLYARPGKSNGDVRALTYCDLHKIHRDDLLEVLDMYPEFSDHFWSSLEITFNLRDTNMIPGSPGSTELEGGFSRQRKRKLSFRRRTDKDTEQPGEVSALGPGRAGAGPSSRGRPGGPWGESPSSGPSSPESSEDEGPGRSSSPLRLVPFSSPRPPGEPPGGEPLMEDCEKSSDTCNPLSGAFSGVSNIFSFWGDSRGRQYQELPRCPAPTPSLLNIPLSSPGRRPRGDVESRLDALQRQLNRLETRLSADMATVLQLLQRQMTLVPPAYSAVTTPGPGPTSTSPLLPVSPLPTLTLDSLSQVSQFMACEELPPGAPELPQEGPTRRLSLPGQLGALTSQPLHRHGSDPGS

SMILES: C[C@H](NC(=O)c1cn(C)c2ccc(-c3ccn4nc(NC(=O)C5CC5)nc4c3)cc12)c1cccc(F)c1 [Compound 94, (S)-5-(2-(cyclopropanecarboxamido)-[1,2,4]triazolo[1,5-a]pyridin-7-yl)-N-(1-(3-fluorophenyl)ethyl)-1-methyl-1H-indole-3-carboxamide]
- Effect on necrotic signaling pathway (RIPK1 autophosphorylation, RIPK3 and MLKL phosphorylation) [1]: affected the phosphorylation of RIPK3 and MLKL downstream of RIPK1 by inhibiting its autophosphorylation
- Overall mortality (TNF α-induced SIRS; 40 mg/kg oral once before TNF α 500 μg/kg i.v., compared with Vehicle group): significantly reduced
- Body temperature of mice (TNF α-induced SIRS; 40 mg/kg oral once before TNF α 500 μg/kg i.v., within 11 h): relatively normal
- Protective effect compared with positive drug (TNF α-induced SIRS; 40 mg/kg oral, vs GSK2982772 40 mg/kg): better protective effect than positive drug GSK2982772
- IC50 (hERG potassium channel): > 30 µM
- Average inhibitory ratio on hERG potassium channel current (hERG potassium channel; human, 30 μM): 3.40%
- Death of mice (DSS-induced colitis; 40 mg/kg oral from day 7 after 2.5% DSS): no death by 14 days
- Body weight of mice (DSS-induced colitis; 40 mg/kg oral from day 7 after 2.5% DSS, FIG. 6): gradual increase in body weight
- Colon length of mice (DSS-induced colitis; 40 mg/kg oral, sacrificed on day 12, FIG. 7): basically equivalent to that of mice in Control group
- Therapeutic effect compared with positive drug (DSS-induced colitis; 40 mg/kg oral, vs GSK3145095 40 mg/kg): better therapeutic effect than positive drug GSK3145095
